The values below come from PubChem BioAssay (NCI).

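A five-concentration, 48-hour dose response in 96-well plates underlies each endpoint, interpolated linearly between surrounding concentrations. Here, GI50 denotes the concentration required for 50% inhibition of growth. TGI: concentration producing complete growth inhibition.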

Experiment in all cases: NCI anticancer screen, dose series, 48 h
In test [1] the test system is LOX IMVI melanoma.
For test [2], the system named is HCT-116 colon.
Test [3] relates to NCI-H23 lung.
Test [4] has as its system SN12C renal.
For test [5], the system named is 786-0 renal.
Test [6] relates to HOP-62 NSCLC.
For test [7], the system named is UO-31 renal.
Test [8] concerns SF-268 CNS.
The subject of test [9] is OVCAR-4 ovarian.
Test [10] relates to EKVX NSCLC.

Regarding `O=C1C(C(Nc2ccccc2)c2ccccc2)=C([O-])c2ccccc21.O=C1C(C(Nc2ccccc2)c2ccccc2)=C([O-])c2ccccc21.[Cu+2]` (stereo unspecified), the GI50 in test [1] is 46.6 µM; in test [2], 12 µM; in test [3], 24.9 µM; in test [4], 41.5 µM; in [5], 48.3 µM; in test [6] it was more than 100 µM. Besides, the GI50 in [7] is 32.2 µM. For the same molecule, the TGI in [1], in test [2], in [3], in [4], in test [5] and in test [6] was more than 100 µM throughout. Moreover, the TGI in test [7] is more than 100 µM.

For the molecule `COc1cc2c(cc1OC)-c1cc(OC)c(OC)cc1C(CN(C)C)C2` (stereo unspecified), the GI50 in [1], in test [8], in test [2], in [3], in [4] and in [5] was more than 10 µM in each case. Moreover, the GI50 was more than 10000 nM in test [9], more than 10 µM in test [6] and more than 10 µM in test [7]. Moreover, the TGI in [1], in [8], in test [2], in [3], in test [4] and in test [5] was more than 10 µM in each case. Besides, the TGI in test [9], in test [6] and in [7] was more than 10 µM throughout.

As to `COc1ccc2c(c1)[n+]([O-])c(C(N)=O)c(N)[n+]2[O-]`, the TGI was more than 100 µM in [10]; more than 100 µM in [2]; 97.7 µM in test [3]; more than 100 µM in [4]; more than 100 µM in [5]; more than 100 µM in test [9]. In addition, the TGI in test [6] and in [7] was more than 100 µM each time.

With `Cn1cc(-c2cc3c(N4CCN(c5ncc([C@@](C)(N)c6ccc(F)cc6)cn5)CC4)ncnn3c2)cn1`, the GI50 in test [10] was 4.14 µM; in test [1], 3.27 µM; in test [2], 3.15 µM; in [4], 5.46 µM; in test [5], 3.15 µM; in test [9] it was 2450 nM. The GI50 in test [6] is 6.31 µM; in [7], 1.84 µM. The TGI in [10], in test [1], in [2], in [4], in test [5] and in test [9] was more than 100 µM each time. In addition, the TGI in test [6] and in [7] was more than 100 µM throughout.

For `N#CCCC[Si]12OCCN(CCO1)CCO2`, the TGI in test [10], in test [8], in [2], in test [3], in [4] and in test [5] was more than 100 µM throughout. The molecule further returned a TGI in test [7] of more than 100 µM.

With `COc1c(CC(C)=O)ccc2c1C(=O)c1ccc(C=O)c(OC(C)=O)c1C2=O`, the TGI stood at 56.9 µM in test [10]; 40.3 µM in [1]; 24.9 µM in [2]; 27.6 µM in test [4]; 21.4 µM in test [5]; 30.4 µM in test [9]. This molecule also gave a TGI in test [7] of 41.4 µM.

`CN1C(=O)C(=O)N2c3ccc(Cl)cc3C3(c4ccccc4)N=CC12O3` (stereo unspecified): the TGI was 27.6 µM in [10]; 25.6 µM in [8]; 13.2 µM in test [2]; 15.5 µM in [3]; 13.7 µM in test [4]; 28.9 µM in [5]. Moreover, the values for the TGI in test [9], in test [6] and in test [7] were 8.43 µM, 30.7 µM and 18.1 µM, respectively.

Regarding `Cc1ccc(-c2nc(N3CCNCC3)c3oc(-c4ccc(C)cc4)nc3n2)cc1`, the GI50 in test [10] is more than 36.3 µM; in test [1], 1.88 µM; in test [8] it was 2.25 µM; in test [4], 1.88 µM; in test [5], 1.69 µM; in test [9] it was 2220 nM. Further, the GI50 in test [6] was 10.1 µM; in test [7] it was 1.76 µM. The TGI in test [10] was more than 51.7 µM; in test [1] it was 3.46 µM; in test [8], 5.61 µM; in test [4] it was 3.61 µM; in [5], 3.24 µM; in test [9] it was 10.6 µM. For the same molecule, the TGI in test [6] is more than 100 µM; in [7], 3.57 µM.

As to `COc1ccc(/C=C/COC(C)=O)cc1OC`, the TGI in [10], in [8], in test [3], in test [4], in test [5] and in [9] was more than 100 µM throughout. Also, in test [7], the TGI is more than 100 µM.

Consider `CC(C)(C)[Si](C)(C)OC1[C@@H](O[Si](C)(C)C(C)(C)C)[C@@H](CNC(=O)NC(=O)C(F)(F)F)O[C@H]1n1cnc2c(NC(=O)Nc3ccccc3)ncnc21` (stereo partly specified), for which the GI50 in [1] was 6.12 µM; in test [8] it was 6.22 µM; in test [2] it was 2.46 µM; in test [3], 8.77 µM; in test [4], 1.96 µM; in [5], 6.58 µM. Moreover, the results for the GI50 in test [9], in [6] and in [7] were 3980 nM, 7.41 µM and 7.68 µM, respectively. Besides, the TGI in test [1] stood at 12.3 µM; in test [8], 13.4 µM; in test [2], 8.47 µM; in [3], 16.6 µM; in [4], 8.22 µM; in [5], 13.4 µM. For the same molecule, the TGI in test [9] was 10.9 µM; in test [6] it was 14.1 µM; in test [7] it was 15.6 µM.

In the case of `O=c1[nH]c(-c2ccccc2)nc2cc(Cl)ccc12`, the TGI in test [10], in test [2], in test [3], in test [5], in test [9] and in test [6] was more than 100 µM throughout. Besides, in test [7], the TGI is more than 100 µM.

As for `CCCOc1nc(N)c2cnn(C3CCCCO3)c2n1` (stereo unspecified), the TGI in test [10], in test [8], in [2], in test [3], in [4] and in [5] was more than 100 µM throughout. For the same molecule, the TGI in [9], in test [6] and in test [7] was more than 100 µM throughout.
